Several values for one entry are separate records, joined by “and”; a condition that tells them apart may be missing. Identical values can stand only once.
Tests used:
[1] = xn = mol fraction of the nth substance listed

BrC(Br)(Br)Br
Conditions | viscosity [mPa·s]
298.15 K, 101 kPa | 3.987

C=CCn1cc[n+](C)c1.O=S(=O)([N-]S(=O)(=O)C(F)(F)F)C(F)(F)F
Conditions | viscosity [mPa·s]
298.15 K, 100 kPa | 34.31

CC(=O)N(C)C
Conditions | viscosity
293.15 K, 101.33 kPa | 1.02 mPa·s
298 K, 101.33 kPa | 0.906 mPa·s
298.15 K, 101.3 kPa | 0.917 mPa·s
298.15 K, 101.33 kPa | 0.92 mPa·s
298.16 K, 101 kPa | 0.927 mPa·s
303.15 K, 101.3 kPa | 0.8769 mPa·s
308.15 K, 101.33 kPa | 0.823 mPa·s
313.15 K, 100 kPa | 0.765 mPa·s
323.15 K, 101 kPa | 0.673 mPa·s and 0.69 mPa·s
323.15 K, 101.33 kPa | 0.72 mPa·s

CC(=O)OCCC1CCCCC1
101 kPa
Conditions | viscosity [mPa·s]
300 K | 2.54
310 K | 2.07
320 K | 1.72

CC(O)CN(C)C (stereo unspecified)
101 kPa
Conditions | viscosity [mPa·s]
303.15 K | 1.221
308.15 K | 1.097
313.15 K | 0.99
318.15 K | 0.902
323.15 K | 0.825

CC1CCCCC1=O (stereo unspecified)
viscosity [mPa·s]
Conditions | 303.15 K | 308.15 K | 313.15 K
100 kPa | 2.225 | 2.168 | 2.111
101 kPa | 2.225 | 2.168 | –
101.33 kPa | 1.406 | – | –

CCC1CCCCC1
100 kPa
Conditions | viscosity
298.15 K | 0.797 mPa·s and 0.792 mPa·s and 0.801 mPa·s
303.15 K | 0.747 mPa·s and 0.741 mPa·s
308.15 K | 0.705 mPa·s and 0.697 mPa·s and 0.701 mPa·s
313.15 K | 0.662 mPa·s and 0.65 mPa·s and 0.664 mPa·s
318.15 K | 0.627 mPa·s and 0.617 mPa·s
323.15 K | 0.585 mPa·s and 0.57 mPa·s and 0.586 mPa·s

CCCCCCCCCO
viscosity
Conditions | 298 K | 298.15 K | 303.15 K | 308.15 K | 318.15 K | 323.15 K
100 kPa | 9.587 mPa·s and 7.614 mPa·s | 9.566 mPa·s | 7.967 mPa·s | 6.59 mPa·s and 6.675 mPa·s | 4.852 mPa·s and 4.814 mPa·s | 4.179 mPa·s and 4.145 mPa·s
101.3 kPa | – | 8.965 mPa·s and 9.692 mPa·s | 7.375 mPa·s | 6.114 mPa·s and 6.494 mPa·s | – | –
101.33 kPa | – | – | 7.376 mPa·s | – | – | –

CCCCCCCC[P+](CC)(CC)CC.O=[N+]([O-])c1cn[n-]c1
100 kPa
Conditions | viscosity [mPa·s]
293.15 K | 398
298.15 K | 282
303.15 K | 207
308.15 K | 155
313.15 K | 119
318.15 K | 94
323.15 K | 75

CCCCCCCC[n+]1ccn(C)c1.F[B-](F)(F)F
101 kPa
Conditions | viscosity
298.15 K | 336.3 mPa·s and 336.3 mPa·s
303.15 K | 257.5 mPa·s
308.15 K | 193.8 mPa·s
313.15 K | 148.8 mPa·s
323.15 K | 92.1 mPa·s

CN(C)CCCO
viscosity [mPa·s]
Conditions | 293.15 K | 303.15 K | 308.15 K | 313.15 K | 318.15 K | 323.15 K
100 kPa | 7.42 | 5.228 | – | 4.007 | – | 3.082
101 kPa | – | 4.933 | 4.22 | 3.632 | 3.155 | 2.765

Cc1cccc2ccccc12
100 kPa
Conditions | viscosity
303.15 K | 2.58 mPa·s and 2.62 mPa·s and 2.582 mPa·s
323.15 K | 1.75 mPa·s and 1.75 mPa·s and 1.748 mPa·s

NCCNCCO.O=S(=O)([N-]S(=O)(=O)C(F)(F)F)C(F)(F)F.[Li+]
Conditions | viscosity [mPa·s]
323.15 K, 101 kPa | 735.9

O=[N+]([O-])c1ccccc1O
viscosity [mPa·s]
Conditions | 313.15 K | 323.1 K | 323.15 K
101 kPa | 2.755 | 2.68 | –
101.33 kPa | – | – | 2.31

CN(C)CCCO + O
viscosity [mPa·s], [1], 101 kPa
Conditions | 303.15 K | 308.15 K | 313.15 K | 318.15 K | 323.15 K
x1 = 0.0478 | 2.218 | 1.896 | 1.635 | 1.432 | 1.262
x1 = 0.0968 | 4.633 | 3.796 | 3.147 | 2.654 | 2.264
x1 = 0.1512 | 7.882 | 6.285 | 5.078 | 4.181 | 3.481
x1 = 0.2009 | – | 8.49 | 6.753 | 5.485 | 4.497
x1 = 0.2997 | 14.97 | 11.59 | 9.103 | 7.288 | 5.903
x1 = 0.3537 | – | 12.35 | 9.663 | 7.732 | 6.247
x1 = 0.4037 | 16.02 | 12.42 | 9.761 | 7.792 | 6.34
x1 = 0.4574 | 15.39 | 12 | 9.458 | 7.631 | 6.19
x1 = 0.499 | 14.63 | 11.46 | 9.077 | 7.329 | 5.974
x1 = 0.6012 | 12.08 | 9.654 | 7.784 | 6.38 | 5.271
x1 = 0.7274 | 9.064 | 7.42 | 6.133 | 5.114 | 4.304
x1 = 0.8081 | 7.504 | 6.239 | 5.224 | 4.417 | 3.765
x1 = 0.9112 | 5.925 | 5.02 | 4.261 | 3.658 | 3.168

NC(CO)C(=O)[O-].[K+] (stereo unspecified) + O
viscosity [mPa·s], [1], 100 kPa
Conditions | x1 = 0.009 | x1 = 0.019 | x1 = 0.029 | x1 = 0.039 | x1 = 0.049 | x1 = 0.06
303.15 K | 0.9271 | 1.088 | 1.308 | 1.575 | 1.929 | 2.448
308.15 K | 0.8325 | 0.9764 | 1.175 | 1.412 | 1.719 | 2.172
313.15 K | 0.7628 | 0.8877 | 1.067 | 1.279 | 1.55 | 1.949
318.15 K | 0.696 | 0.8049 | 0.9686 | 1.159 | 1.398 | 1.752
323.15 K | 0.6347 | 0.74 | 0.8896 | 1.061 | 1.275 | 1.59

NCCNCCO.O=S(=O)([N-]S(=O)(=O)C(F)(F)F)C(F)(F)F.[Li+] + O
[1], 323.15 K, 101 kPa
Conditions | viscosity [mPa·s]
x1 = 0.0304 | 1.63
x1 = 0.06 | 3.61
x1 = 0.0997 | 7.57
x1 = 0.2003 | 27.72
x1 = 0.3009 | 65.11
x1 = 0.3955 | 114.4
x1 = 0.4975 | 184.4
x1 = 0.599 | 272.2
x1 = 0.7014 | 372.3
x1 = 0.8015 | 486.8
x1 = 0.8978 | 605.3

CC(N)=O + O=C1CCCCCN1
[1], 101 kPa, x2 = 0.5
Conditions | viscosity [mPa·s]
303.1 K | 66.67
313.1 K | 32.87
323.1 K | 22.69

CC(=O)N(C)C + OCCO
[1], 308.15 K, 101 kPa
Conditions | viscosity [mPa·s]
x2 = 0.1632 | 1.166
x2 = 0.2752 | 1.388
x2 = 0.4068 | 1.611
x2 = 0.5162 | 2.416
x2 = 0.6269 | 3.622
x2 = 0.7125 | 4.662
x2 = 0.7974 | 5.882
x2 = 0.8652 | 7.289
x2 = 0.9339 | 8.916

O=[N+]([O-])c1ccccc1O + c1ccc2ncccc2c1
viscosity [mPa·s], [1], 101 kPa
Conditions | 303.15 K | 313.15 K
x1 = 0.1011 | 3.361 | 2.66
x1 = 0.2021 | 3.772 | 2.928
x1 = 0.2913 | 4.125 | 3.16
x1 = 0.3982 | 4.495 | 3.375
x1 = 0.4731 | 4.68 | 3.465
x1 = 0.5638 | 4.72 | 3.47
x1 = 0.6538 | 4.595 | 3.41
x1 = 0.7624 | 4.355 | 3.25
x1 = 0.8131 | 4.22 | 3.151
x1 = 0.8588 | 4.09 | 3.059
x1 = 0.9056 | 3.95 | 2.955
x1 = 0.9521 | – | 2.855

BrC(Br)(Br)Br + c1ccccc1
[1], 298.15 K, 101 kPa
Conditions | viscosity [mPa·s]
x1 = 0.1 | 0.8303
x1 = 0.2 | 1.122
x1 = 0.3 | 1.464
x1 = 0.4 | 1.839
x1 = 0.5 | 2.235
x1 = 0.6 | 2.636
x1 = 0.7 | 3.026
x1 = 0.8 | 3.391
x1 = 0.9 | 3.716

CCCCCCCCCO + c1ccccc1
viscosity [mPa·s], [1], 100 kPa
Conditions | x2 = 0.0841 | x2 = 0.1721 | x2 = 0.2502 | x2 = 0.3634 | x2 = 0.4529 | x2 = 0.5631 | x2 = 0.6508 | x2 = 0.7569 | x2 = 0.8448 | x2 = 0.9503
293.15 K | 9.518 | 7.891 | 6.648 | 5.055 | 3.95 | 2.851 | 2.158 | 1.469 | 1.089 | 0.766
303.15 K | 6.477 | 5.231 | 4.302 | 3.268 | 2.618 | 1.931 | 1.474 | 1.067 | 0.824 | 0.628
313.15 K | 4.537 | 3.665 | 3.011 | 2.228 | 1.762 | 1.327 | 1.045 | 0.807 | 0.675 | 0.542
323.15 K | 3.323 | 2.677 | 2.203 | 1.656 | 1.318 | 1.005 | 0.817 | 0.662 | 0.56 | 0.474

Cc1c[nH]cn1 + c1ccccc1
viscosity [mPa·s], [1], 101 kPa
Conditions | 303.15 K | 323.15 K
x1 = 0.003559 | 0.568 | –
x1 = 0.007082 | 0.584 | –
x1 = 0.02102 | 0.631 | 0.479
x1 = 0.02167 | 0.636 | 0.48
x1 = 0.04045 | 0.729 | 0.533
x1 = 0.04194 | 0.748 | 0.543
x1 = 0.04196 | 0.749 | –
x1 = 0.05112 | 0.796 | 0.574
x1 = 0.08708 | 1.004 | –
x1 = 0.1079 | 1.123 | –
x1 = 0.1551 | 1.496 | –
x1 = 0.2018 | 1.869 | –
x1 = 0.2491 | 2.344 | –

CC(N)=O + c1ccncc1
[1], 298.15 K, 101 kPa
Conditions | viscosity [mPa·s]
x1 = 0.0512 | 0.987
x1 = 0.0742 | 1.005
x1 = 0.111 | 1.088
x1 = 0.2065 | 1.381

O=C(Nc1ccccc1)Nc1ccccc1 + c1ccncc1
[1], 298.15 K, 101 kPa
Conditions | viscosity [mPa·s]
x1 = 0.022 | 1.045
x1 = 0.0281 | 1.079

O=[N+]([O-])c1ccccc1O + c1ccncc1
viscosity [mPa·s], [1], 101 kPa
Conditions | x1 = 0.06767 | x1 = 0.1295 | x1 = 0.178 | x1 = 0.2717 | x1 = 0.3836 | x1 = 0.4628 | x1 = 0.5508 | x1 = 0.6529 | x1 = 0.7913 | x1 = 0.8557
303.15 K | 0.943 | 1.081 | 1.211 | 1.5 | 1.881 | 2.15 | 2.45 | 2.755 | 3.145 | 3.331
313.15 K | 0.815 | 0.93 | 1.03 | 1.245 | 1.51 | 1.711 | 1.912 | 2.145 | 2.411 | 2.525
